The values below come from ChEMBL document CHEMBL1158784, “Sorbicillin analogues and related dimeric compounds from Penicillium notatum” (2005).

The structures appear in SMILES notation. Calls of active or inactive are those of the source. The calls are words filed in the database; no cut-off is given here.

The test system of one assay is Staphylococcus aureus. The experiment in a line: Antimicrobial activity against Staphylococcus aureus at 20 ug/9 mm disk by agar diffusion method. The class given is functional. In general terms: A growth-free zone around the sample is the usual read-out of agar diffusion tests.
The subject of assay [1] is Streptomyces viridochromogenes. Kind of assay: Antimicrobial activity against Streptomyces viridochromogenes Tu57 at 20 ug/9 mm disk by agar diffusion method. The class given is functional, organism-based.
For the next assay, the system named is Escherichia coli. Kind of assay: Antimicrobial activity against Escherichia coli at 20 ug/9 mm disk by agar diffusion method. Type of assay: functional, organism-based.
The next assay deals with Candida albicans. The experiment in a line: Antimicrobial activity against Candida albicans at 20 ug/9 mm disk by agar diffusion method. Type of assay: functional.
Another assay concerns Rhizomucor miehei. Kind of assay: Antimicrobial activity against Mucor miehei at 20 ug/9 mm disk by agar diffusion method. Type of assay: functional, organism-based.
A further assay deals with Chlorella vulgaris. The experiment in a line: Antimicrobial activity against Chlorella vulgaris at 20 ug/9 mm disk by agar diffusion method. The class given is functional, organism-based.
Another assay relates to Chlorella sorokiniana. Kind of assay: Antimicrobial activity against Chlorella sorokiniana at 20 ug/9 mm disk by agar diffusion method. Type of assay: functional, organism-based.
Another assay deals with Desmodesmus subspicatus. Kind of assay: Antimicrobial activity against Scenedesmus subspicatus at 20 ug/9 mm disk by agar diffusion method. The class given is functional, organism-based.
For the next assay, the system named is Bacillus subtilis. The experiment in a line: Antimicrobial activity against Bacillus subtilis at 20 ug/9 mm disk by agar diffusion method. The class given is functional.

As for `C/C=C/C=C/C(O)=C1/C(=O)[C@](C)(O)C(=O)C(C)=C1O`, the “inhibition zone (IZ)” value with Staphylococcus aureus is reported as 12 mm; with Candida albicans, 13 mm; with Bacillus subtilis it was 12 mm. For the same compound, the result (in [1]; in the assay with Escherichia coli; with Rhizomucor miehei; in the assay on Chlorella vulgaris; in the assay with Chlorella sorokiniana; in the assay on Desmodesmus subspicatus) was inactive.
In the case of `C/C=C/CCC(=O)c1cc(C)c(O)c(C)c1O`, the “inhibition zone (IZ)” value is given as 12 mm in the assay with Staphylococcus aureus, 13 mm in the assay with Candida albicans and 12 mm in the assay on Bacillus subtilis. Besides, the result (in assay [1]; with Escherichia coli; with Rhizomucor miehei; with Chlorella vulgaris; in the assay on Chlorella sorokiniana; in the assay on Desmodesmus subspicatus) was inactive.
Consider `CC(C)=CCC/C(C)=C/CC/C(C)=C/C[C@@]12O[C@@H]1[C@H](O)C(C)=CC2=O`, for which the results for the “inhibition zone (IZ)” value in the assay on Staphylococcus aureus, in the assay with Candida albicans and with Bacillus subtilis were 12 mm, 13 mm and 12 mm, respectively. Besides, the outcome (in assay [1]; in the assay on Escherichia coli; with Rhizomucor miehei; in the assay with Chlorella vulgaris; in the assay on Chlorella sorokiniana; in the assay on Desmodesmus subspicatus) was inactive.
Regarding `C/C=C/C=C/C(=O)C1=C(C)C(=O)C(O)=C(C)C1=O`, the outcome (with Staphylococcus aureus; in assay [1]; with Escherichia coli; in the assay on Candida albicans; in the assay on Rhizomucor miehei; in the assay with Chlorella vulgaris) was inactive. In addition, the result in the assay on Chlorella sorokiniana, in the assay with Desmodesmus subspicatus and with Bacillus subtilis was inactive.
As for `C/C=C/C=C/C(=O)C1=C[C@@]2(C)[C@H]3C(C(=O)/C=C/C=C/C)=C(O)C(C)=C(O)[C@@]3(C)O[C@@]2(O)[C@@](C)(O)C1=O`, the result (in the assay with Staphylococcus aureus; in assay [1]; with Escherichia coli; in the assay with Candida albicans; in the assay with Rhizomucor miehei; with Chlorella vulgaris) was inactive. For the same compound, the outcome in the assay with Chlorella sorokiniana, with Desmodesmus subspicatus and in the assay on Bacillus subtilis was inactive.
For `C/C=C/C=C/C(O)=C1\C(=O)C(C)=C(O)[C@@](C)(O)C1=O`, the outcome (with Staphylococcus aureus; in [1]; with Escherichia coli; with Candida albicans; in the assay on Rhizomucor miehei; with Chlorella vulgaris) was inactive. Moreover, the outcome in the assay with Chlorella sorokiniana, with Desmodesmus subspicatus and in the assay with Bacillus subtilis was inactive.
As to `C/C=C/CCC(=O)c1c(C)c(O)c(O)c(C)c1O`, the result (with Staphylococcus aureus; in assay [1]; with Escherichia coli; in the assay on Candida albicans; in the assay with Rhizomucor miehei; with Chlorella vulgaris) was inactive. Moreover, the outcome in the assay on Chlorella sorokiniana, with Desmodesmus subspicatus and in the assay on Bacillus subtilis was inactive.
In the case of `C/C=C/C=C/C(=O)[C@]12C(=O)C(C)=C(O)[C@@](C)(O)[C@H]1[C@H]1\C(=C(O)/C=C/C=C/C)C(=O)[C@]2(C)C(=O)[C@@]1(C)O` [BISORBICILLINOL], the “inhibition zone (IZ)” value was found to be 12 mm with Staphylococcus aureus, 13 mm in the assay with Candida albicans and 12 mm in the assay on Bacillus subtilis. The result (in assay [1]; in the assay on Escherichia coli; with Rhizomucor miehei; in the assay with Chlorella vulgaris; in the assay with Chlorella sorokiniana; in the assay with Desmodesmus subspicatus) was inactive.
On to `C/C=C/C=C/C(O)=C1/C(=O)[C@]2(C)C(=O)[C@@](C)(O)[C@H]1[C@H]1[C@]2(C(=O)CC/C=C/C)C(=O)C(C)=C(O)[C@@]1(C)O` [BISVERTINOQUINOL], for which the “inhibition zone (IZ)” value stood at 12 mm in the assay with Staphylococcus aureus, 13 mm with Candida albicans and 12 mm with Bacillus subtilis. Besides, the outcome (in [1]; with Escherichia coli; in the assay on Rhizomucor miehei; with Chlorella vulgaris; in the assay on Chlorella sorokiniana; with Desmodesmus subspicatus) was inactive.
Regarding `C/C=C/C=C/C(O)=C1\C(=O)[C@]2(C)C(=O)[C@@](C)(O)[C@H]1[C@H]1OC(=O)C[C@]12CO` [REZISHANONE A], the figures for the “inhibition zone (IZ)” value in the assay with Staphylococcus aureus, in the assay on Candida albicans and with Bacillus subtilis were 12 mm, 13 mm and 12 mm, respectively. Moreover, the outcome (in assay [1]; with Escherichia coli; in the assay on Rhizomucor miehei; in the assay with Chlorella vulgaris; with Chlorella sorokiniana; in the assay on Desmodesmus subspicatus) was inactive.
For `C/C=C/C=C/C(O)=C1\C(=O)[C@]2(C)C(=O)[C@@](C)(O)[C@H]1C[C@@H]2OCCCC` [REZISHANONE B], the “inhibition zone (IZ)” value in the assay with Staphylococcus aureus stood at 12 mm; with Candida albicans it was 13 mm; in the assay on Bacillus subtilis, 12 mm. In addition, the result (in assay [1]; in the assay with Escherichia coli; in the assay on Rhizomucor miehei; in the assay with Chlorella vulgaris; in the assay with Chlorella sorokiniana; in the assay with Desmodesmus subspicatus) was inactive.
For the compound `C/C=C/C=C/C(O)=C1\C(=O)[C@]2(C)C(=O)[C@@](C)(O)[C@H]1C[C@@H]2OCC` [REZISHANONE C], the “inhibition zone (IZ)” value in the assay on Staphylococcus aureus turned out to be 12 mm; with Candida albicans, 13 mm; with Bacillus subtilis, 12 mm. In addition, the outcome (in assay [1]; with Escherichia coli; in the assay on Rhizomucor miehei; in the assay on Chlorella vulgaris; with Chlorella sorokiniana; in the assay with Desmodesmus subspicatus) was inactive.
For the compound `C/C=C/CC/C(O)=C1\C(=O)[C@]2(C)C(=O)[C@@](C)(O)[C@H]1C[C@@H]2OCC` [REZISHANONE D], the “inhibition zone (IZ)” value in the assay with Staphylococcus aureus was found to be 12 mm; in the assay on Candida albicans, 13 mm; with Bacillus subtilis it was 12 mm. The outcome (in assay [1]; in the assay with Escherichia coli; with Rhizomucor miehei; with Chlorella vulgaris; in the assay with Chlorella sorokiniana; in the assay on Desmodesmus subspicatus) was inactive.
Turning to `C/C=C/CCC(=O)c1cc(C)c(O)cc1O` [SOHIRNONE A], the “inhibition zone (IZ)” value in the assay on Staphylococcus aureus is reported as 12 mm; with Candida albicans it was 13 mm; in the assay on Bacillus subtilis, 12 mm. The result (in assay [1]; with Escherichia coli; in the assay on Rhizomucor miehei; in the assay on Chlorella vulgaris; in the assay on Chlorella sorokiniana; in the assay on Desmodesmus subspicatus) was inactive.
In the case of `C/C=C/C=C/C(=O)c1c(C)c(O)c(O)c(C)c1O` [SOHIRNONE B], the results for the “inhibition zone (IZ)” value with Staphylococcus aureus, in the assay with Candida albicans and in the assay with Bacillus subtilis were 12 mm, 13 mm and 12 mm, respectively. Besides, the outcome (in assay [1]; with Escherichia coli; with Rhizomucor miehei; in the assay with Chlorella vulgaris; with Chlorella sorokiniana; with Desmodesmus subspicatus) was inactive.
